Laboratory results from patent publication US10183944B2 (Asana Biosciences, LLC, priority 2011, dated 2019).

Key:
[1] = biological target: Syk (356-635 amino acids) catalytic domain (Homo sapiens (Human), UniProt P43405); assay: Inhibition of enzymatic Syk kinase activity (radiometric); assay type: biochemical; conditions: read-out: IC50 Syk
Outline: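 Radiometric filter-binding format: 32P transfer from γ-32P-ATP onto pG4T, scintillation-counted after acid washes of P81 paper. Syk kinase domain (356-635), 0.035–7.5 ng per reaction, was exposed to compound for 30 minutes at room temperature before a 10-minute, 30° C. reaction with ATP (100 μM stock). Inhibition derived from counts with versus without compound.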

JAK2 = JAK2 (Homo sapiens (Human), UniProt O60674); assay: Inhibition of enzymatic JAK2 kinase activity (TR-FRET); assay type: biochemical; conditions: read-out: IC50 JAK
JAK2, sequence (O60674 808-1132): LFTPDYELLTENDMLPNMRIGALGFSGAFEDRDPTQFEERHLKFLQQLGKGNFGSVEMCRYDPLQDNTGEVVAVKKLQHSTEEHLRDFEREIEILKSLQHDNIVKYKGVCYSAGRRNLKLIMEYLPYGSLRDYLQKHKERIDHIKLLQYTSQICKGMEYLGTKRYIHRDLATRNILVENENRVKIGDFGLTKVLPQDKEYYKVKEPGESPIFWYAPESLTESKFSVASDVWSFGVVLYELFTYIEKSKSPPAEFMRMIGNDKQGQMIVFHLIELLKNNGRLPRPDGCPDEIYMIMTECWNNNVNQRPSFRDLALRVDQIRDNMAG
Outline: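 TR-FRET read-out (Eu antibody donor, Ulight poly Glu-Tyr acceptor, 665/615 nm ratio) after a 60 min RT kinase reaction with ATP, begun following 30 min compound–enzyme preincubation. Stopped by EDTA; inhibition expressed as 100 minus % activity of positive control.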

RBL2H3 cells = assay: Degranulation assay: β-hexosaminidase release during immune complex mediated degranulation; assay type: cell-based, rat; conditions: Rattus norvegicus, RBL-2H3, Assay Protocol B (96 well format); for inhibition at 1 µM: read-out: Degranulation % inhibition at 1 μM; for EC50: read-out: Degranulation EC50
Outline: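 Fluorometric β-NAG read-out (Ex 355, Em 460 nm; 30 min, RT) of supernatant after DNP-BSA stimulation (45–60 min) of anti-DNP IgE-sensitized RBL2H3 cells. Compounds (0.5% DMSO) added 15 min before antigen; degranulation expressed as % β-hexosaminidase release or inhibition.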

| Compound | IC50 [1] | IC50 (JAK2) | EC50 (RBL2H3 cells) | inhibition at 1 µM (RBL2H3 cells) |
| --- | --- | --- | --- | --- |
| CC1CN(c2nc(Nc3ccc(N4CCC(CC(=O)O)CC4)cc3)c3c(=O)[nH]ncc3n2)CC(C)O1 (stereo not shown) [Example 121, 2-(1-(4-((2-(2,6-dimethylmorpholino)-5-oxo-5,6-dihydropyrimido[4,5-d]pyridazin-4-yl)amino)phenyl)piperidin-4-yl)acetic acid] | < 50 nM | < 50 nM | 156 nM | 98% |
| O=C(O)CCC1CCN(c2ccc(Nc3nc(-c4ccccc4)nc4cn[nH]c(=O)c34)cc2)CC1 [Example 132, 3-(1-(4-((5-oxo-2-phenyl-5,6-dihydropyrimido[4,5-d]pyridazin-4-yl)amino)phenyl)piperidin-4-yl)propanoic acid] | < 50 nM | < 10 nM | 24 nM | 99% |
| CC(C)(O)C1CCN(c2ccc(Nc3nc(N4CCC(CC#N)CC4)nc4cn[nH]c(=O)c34)cc2)CC1 [Example 146, 2-(1-(4-((4-(4-(2-hydroxypropan-2-yl)piperidin-1-yl)phenyl)amino)-5-oxo-5,6-dihydropyrimido[4,5-d]pyridazin-2-yl)piperidin-4-yl)acetonitrile] | < 10 nM | < 50 nM | 26 nM | 66% |
| N#CCC1CCN(c2nc(Nc3ccc(N4CCC(CCC(=O)O)CC4)cc3)c3c(=O)[nH]ncc3n2)CC1 [Example 147, 3-(1-(4-((2-(4-(cyanomethyl)piperidin-1-yl)-5-oxo-5,6-dihydropyrimido[4,5-d]pyridazin-4-yl)amino)phenyl)piperidin-4-yl)propanoic acid] | < 10 nM | < 50 nM | 152 nM | 49% |
| O=c1[nH]ncc2nc(N3CCCCC3)nc(Nc3ccc(OCCN4CCNCC4)cc3)c12 [Example 153, 4-((4-(2-(piperazin-1-yl)ethoxy)phenyl)amino)-2-(piperidin-1-yl)pyrimido[4,5-d]pyridazin-5(6H)-one] | < 50 nM | < 100 nM | 324 nM | 47% |
| O=C1CN(CCOc2ccc(Nc3nc(N4CCCCCC4)nc4cn[nH]c(=O)c34)cc2)CCN1 [Example 157, 2-(azepan-1-yl)-4-((4-(2-(3-oxopiperazin-1-yl)ethoxy)phenyl)amino) pyrimido[4,5-d]pyridazin-5(6H)-one] | < 50 nM | < 50 nM | 42 nM | 70% |
| O=C(O)C1CC12CCN(CCOc1ccc(Nc3nc(N4CCCCCC4)nc4cn[nH]c(=O)c34)cc1)CC2 (stereo not shown) [Example 158, 6-(2-(4-((2-(azepan-1-yl)-5-oxo-5,6-dihydropyrimido[4,5-d]pyridazin-4-yl)amino)phenoxy)ethyl)-6-azaspiro[2.5]octane-1-carboxylic acid] | < 50 nM | < 10 nM | 162 nM | 53% |
| CCN(CC)CCOc1ccc(Nc2nc(N3CCCCCC3)nc3cn[nH]c(=O)c23)cc1 [Example 159, 2-(azepan-1-yl)-4-((4-(2-(diethylamino)ethoxy)phenyl)amino)pyrimido[4,5-d]pyridazin-5(6H)-one] | < 50 nM | < 10 nM | 56 nM | 68% |
| CN(c1nc(Nc2ccc(N3CCC(CC(=O)O)CC3)cc2)c2c(=O)[nH]ncc2n1)C1CCCCC1 [Example 161, 2-(1-(4-((2-(cyclohexyl(methyl)amino)-5-oxo-5,6-dihydropyrimido[4,5-d]pyridazin-4-yl)amino)phenyl)piperidin-4-yl)acetic acid] | < 50 nM | < 10 nM | 39 nM | 74% |
| N#CCC1CCN(c2nc(Nc3ccc(N4CCN(CC(=O)O)CC4)cc3)c3c(=O)[nH]ncc3n2)CC1 [Example 162, 2-(4-(4-((2-(4-(cyanomethyl)piperidin-1-yl)-5-oxo-5,6-dihydropyrimido[4,5-d]pyridazin-4-yl)amino)phenyl)piperazin-1-yl)acetic acid] | < 10 nM | < 10 nM | 281 nM | 27% |
| O=c1[nH]ncc2nc(N3CCCCCC3)nc(Nc3ccc(CCCN4CCNCC4)cc3)c12 [Example 173, 2-(azepan-1-yl)-4-((4-(3-(piperazin-1-yl)propyl)phenyl)amino)pyrimido[4,5-d]pyridazin-5(6H)-one] | < 50 nM | < 50 nM | 29 nM | 66% |
| CCN1CCN(c2ccc(Nc3nc(N4CCC(CC#N)CC4)nc4cn[nH]c(=O)c34)cc2)CC1=O [Example 178, 2-(1-(4-((4-(4-ethyl-3-oxopiperazin-1-yl)phenyl)amino)-5-oxo-5,6-dihydropyrimido[4,5-d]pyridazin-2-yl)piperidin-4-yl)acetonitrile] | < 10 nM | < 10 nM | 39 nM | 73% |
| O=c1[nH]ncc2nc(N3CCCCC3)nc(Nc3ccc(OCCN4CCC(O)CC4)cc3)c12 [Example 183, 4-((4-(2-(4-hydroxypiperidin-1-yl)ethoxy)phenyl)amino)-2-(piperidin-1-yl)pyrimido[4,5-d]pyridazin-5(6H)-one] | < 10 nM | < 50 nM | 83 nM | 41% |
| CC1(O)CCN(CCOc2ccc(Nc3nc(N4CCCCCC4)nc4cn[nH]c(=O)c34)cc2)CC1 [Example 184, 2-(azepan-1-yl)-4-((4-(2-(4-hydroxy-4-methylpiperidin-1-yl)ethoxy)phenyl)amino)pyrimido[4,5-d]pyridazin-5(6H)-one] | < 10 nM | < 10 nM | 33 nM | 65% |

More lines, main results first:

| IC50 [1] | IC50 (JAK2) | EC50 (RBL2H3 cells) | Compound | inhibition at 1 µM (RBL2H3 cells) |
| --- | --- | --- | --- | --- |
| < 10 nM | < 10 nM | 116 nM | O=C(O)C[C@H]1CC[C@@H](c2ccc(Nc3nc(N4CCCCCC4)nc4cn[nH]c(=O)c34)cc2)CC1 [Example 123, 2-((1S,4S)-4-(4-((2-(azepan-1-yl)-5-oxo-5,6-dihydropyrimido[4,5-d]pyridazin-4-yl)amino)phenyl)cyclohexyl)acetic acid] | 90% |
| < 10 nM | < 10 nM | 35 nM | O=C(O)C1CC1C1CCN(c2ccc(Nc3nc(N4CCCCCC4)nc4cn[nH]c(=O)c34)cc2)CC1 (stereo not shown) [Example 131, 2-(1-(4-((2-(azepan-1-yl)-5-oxo-5,6-dihydropyrimido[4,5-d]pyridazin-4-yl)amino)phenyl)piperidin-4-yl) cyclopropanecarboxylic acid] | 98% |
| < 10 nM | < 10 nM | 98 nM | O=C(O)CN1CCCN(c2ccc(Nc3nc(N4CCCCCC4)nc4cn[nH]c(=O)c34)cc2)CC1 [Example 145, 2-(4-(4-((2-(azepan-1-yl)-5-oxo-5,6-dihydropyrimido[4,5-d]pyridazin-4-yl)amino)phenyl)-1,4-diazepan-1-yl)acetic acid] | 52% |
| < 50 nM | < 50 nM | 2320 nM | O=C(O)CN1CCCN(c2ccc(Nc3nc(N4CCCCC4)nc4cn[nH]c(=O)c34)cc2)CC1 [Example 154, 2-(4-(4-((5-oxo-2-(piperidin-1-yl)-5,6-dihydropyrimido[4,5-d]pyridazin-4-yl)amino)phenyl)-1,4-diazepan-1-yl)acetic acid] | 23% |
| < 50 nM | < 50 nM | 27 nM | CC1CCN(c2nc(Nc3ccc(N4CCC5(CC4)CC5C(=O)O)cc3)c3c(=O)[nH]ncc3n2)CC1 (stereo not shown) [Example 155, 6-(4-((2-(4-methylpiperidin-1-yl)-5-oxo-5,6-dihydropyrimido[4,5-d]pyridazin-4-yl)amino)phenyl)-6-azaspiro[2.5]octane-1-carboxylic acid] |  |
| < 50 nM | < 10 nM | 101 nM | O=c1[nH]ncc2nc(N3CCCCCC3)nc(Nc3ccc(OCCN4CCC(O)CC4)cc3)c12 [Example 172, 2-(azepan-1-yl)-4-((4-(2-(4-hydroxypiperidin-1-yl)ethoxy)phenyl)amino)pyrimido[4,5-d]pyridazin-5(6H)-one] | 50% |
| < 10 nM | < 10 nM | 6 nM | CCN1CCN(c2ccc(Nc3nc(N4CCCCCC4)nc4cn[nH]c(=O)c34)cc2)CC1=O [Example 175, 2-(azepan-1-yl)-4-((4-(4-ethyl-3-oxopiperazin-1-yl)phenyl)amino) pyrimido[4,5-d]pyridazin-5(6H)-one] | 98% |
| < 10 nM | < 10 nM | 9 nM | O=c1[nH]ncc2nc(N3CCCCCC3)nc(Nc3ccc(CCCN4CCC(O)CC4)cc3)c12 [Example 179, 2-(azepan-1-yl)-4-((4-(3-(4-hydroxypiperidin-1-yl)propyl)phenyl)amino)pyrimido[4,5-d]pyridazin-5(6H)-one] | 45% |
| < 10 nM | < 10 nM | 3 nM | CCN1CCN(c2ccc(Nc3nc(N4CCCCCC4)nc4cn[nH]c(=O)c34)cc2)CC1 [Example 180, 2-(azepan-1-yl)-4-((4-(4-ethylpiperazin-1-yl)phenyl)amino)pyrimido[4,5-d]pyridazin-5(6H)-one] | 70% |
